Tests used:
[1] = tested on: ALS in POAAN-R3 and susceptible annual bluegrass plants; set-up: method as in Brosnan et al. [2015]; settings: increasing concentrations from 0 to 100 μM; ref Brosnan et al. [2015]; cited from earlier work
[2] = tested on: annual bluegrass (Poa annua L.); experiment: Whole plant non-target site resistance experiment, foramsulfuron vs sulfometuron (control and plant height 28 days after treatment); type: in vivo
Protocol: A second experiment was conducted to determine if non-target mechanisms could confer resistance to ALS inhibiting herbicides in our annual bluegrass population, POAAN-R3. ALS-resistant (RP1–RP8) and susceptible (S) plants were cultured in plastic conical containers under previously described glasshouse conditions for 28 days before being treated with foramsulfuron (29 g ha^−1) or sulfometuron-methyl (Oust XP; Dupont Professional Products. Wilmington, DE, USA) at 105 g ai ha^−1. Sulfometuron-methyl is an ALS inhibiting herbicide not metabolized by cytochrome P450 monooxygenases; therefore, it can be used to discern if weed populations survive ALS inhibiting herbicide treatment via target- or non-target site based mechanisms (Christopher et al. [1992]). Per label recommendations, sulfometuron-methyl included non-ionic surfactant at 0.25 % v/v. Treatments were mixed in water carrier applied in an enclosed spray chamber, as previously described, on 13 March 2015.
Annual bluegrass control was visually assessed on a 0 (i.e., no control) to 100 % (i.e., complete kill) scale relative to the non-treated 28 days after treatment. After all control data had been collected, plant height data were collected using a ruler placed at the soil surface of each plastic conical container and recording the distance to the tip of the bud leaf. Treatments were arranged as a 9 × 3 factorial with nine plant selections (RP1–RP8, S) and three herbicides (foramsulfuron, sulfometuron-methyl, non-treated) in a completely randomized design with four replications and repeated in separate glasshouses during March 2015.

[3] = tested on: recombinant Arabidopsis thaliana ALS variant W574L; type: biochemical; settings: IC50 mutant divided by IC50 sensitive ALS; max inhibitor concentration 1.00 × 10^−04 M
Procedure, shortened: (§1)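 His-tagged enzymes lacking the 85-residue N-terminal transit peptide, expressed and purified. Herbicides in DMSO added; reaction 60 min at 30 °C, stopped with H2SO4, acetolactate converted to acetoin at 56 °C for 15 min.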

[4] = tested on: recombinant Arabidopsis thaliana ALS variant A205V; type: biochemical; settings: IC50 mutant divided by IC50 sensitive ALS; max inhibitor concentration 1.00 × 10^−04 M
Procedure, shortened: as §1

[5] = tested on: recombinant Arabidopsis thaliana ALS variant A205F; type: biochemical; settings: IC50 mutant divided by IC50 sensitive ALS; max inhibitor concentration 1.00 × 10^−04 M
Procedure, shortened: as §1

[6] = biological target: T1, recombinant Arabidopsis thaliana ALS wild-type enzyme (WT—sensitive) (Arabidopsis thaliana, UniProt P17597); experiment: biochemical
T1 construct: Protein constructs contained an 85 amino acid N-terminal deletion (chloroplast transit peptide); Hexa-histidine tag (N); made in house
T1 sequence (P17597 86-670): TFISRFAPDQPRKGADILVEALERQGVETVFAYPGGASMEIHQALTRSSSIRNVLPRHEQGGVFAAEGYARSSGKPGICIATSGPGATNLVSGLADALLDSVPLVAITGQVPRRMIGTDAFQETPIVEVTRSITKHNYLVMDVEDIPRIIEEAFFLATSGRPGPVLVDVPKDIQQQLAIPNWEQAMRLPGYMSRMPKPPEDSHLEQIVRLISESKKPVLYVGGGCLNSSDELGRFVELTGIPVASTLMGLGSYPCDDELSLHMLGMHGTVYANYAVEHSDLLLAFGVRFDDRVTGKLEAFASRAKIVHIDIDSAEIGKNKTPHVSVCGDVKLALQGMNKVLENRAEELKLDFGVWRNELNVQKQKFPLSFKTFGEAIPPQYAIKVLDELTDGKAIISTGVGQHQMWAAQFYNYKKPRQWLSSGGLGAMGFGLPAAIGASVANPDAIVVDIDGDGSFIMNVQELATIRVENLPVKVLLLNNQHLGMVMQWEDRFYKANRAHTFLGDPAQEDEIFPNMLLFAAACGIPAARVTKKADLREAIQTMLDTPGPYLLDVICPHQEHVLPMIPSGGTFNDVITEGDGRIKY
Procedure, shortened: as §1

COc1cc(OC)nc(NC(=O)NS(=O)(=O)c2cc(NC=O)ccc2C(=O)N(C)C)n1 [Foramsulfuron]
differences in the in vitro activity of ALS in POAAN-R3 and susceptible plants [1]: no differences
Annual bluegrass control RP1 ([2]; RP1, 28 days after treatment, minimum of two tillers, foramsulfuron 29, sulfometuron 105 g ha^−1): 8%
Annual bluegrass height RP1 ([2]; RP1, plant height 28 days after treatment, foramsulfuron 29, sulfometuron 105 g ha^-1, non-treated 118 mm): 77 mm
Annual bluegrass control RP2 ([2]; RP2, 28 days after treatment, minimum of two tillers, foramsulfuron 29, sulfometuron 105 g ha^−1): 2%
Annual bluegrass height RP2 ([2]; RP2, plant height 28 days after treatment, foramsulfuron 29, sulfometuron 105 g ha^-1, non-treated 129 mm): 74 mm
Annual bluegrass control RP3 ([2]; RP3, 28 days after treatment, minimum of two tillers, foramsulfuron 29, sulfometuron 105 g ha^−1): 5%
Annual bluegrass height RP3 ([2]; RP3, plant height 28 days after treatment, foramsulfuron 29, sulfometuron 105 g ha^-1, non-treated 173 mm): 100 mm
Annual bluegrass control RP4 ([2]; RP4, 28 days after treatment, minimum of two tillers, foramsulfuron 29, sulfometuron 105 g ha^−1): 11%
Annual bluegrass height RP4 ([2]; RP4, plant height 28 days after treatment, foramsulfuron 29, sulfometuron 105 g ha^-1, non-treated 140 mm): 85 mm
Annual bluegrass control RP5 ([2]; RP5, 28 days after treatment, minimum of two tillers, foramsulfuron 29, sulfometuron 105 g ha^−1): 8%
Annual bluegrass height RP5 ([2]; RP5, plant height 28 days after treatment, foramsulfuron 29, sulfometuron 105 g ha^-1, non-treated 114 mm): 75 mm
Annual bluegrass control RP6 ([2]; RP6, 28 days after treatment, minimum of two tillers, foramsulfuron 29, sulfometuron 105 g ha^−1): 46%
Annual bluegrass height RP6 ([2]; RP6, plant height 28 days after treatment, foramsulfuron 29, sulfometuron 105 g ha^-1, non-treated 106 mm): 68 mm
Annual bluegrass control RP7 ([2]; RP7, 28 days after treatment, minimum of two tillers, foramsulfuron 29, sulfometuron 105 g ha^−1): 5%
Annual bluegrass height RP7 ([2]; RP7, plant height 28 days after treatment, foramsulfuron 29, sulfometuron 105 g ha^-1, non-treated 125 mm): 75 mm
Annual bluegrass control RP8 ([2]; RP8, 28 days after treatment, minimum of two tillers, foramsulfuron 29, sulfometuron 105 g ha^−1): 3%
Annual bluegrass height RP8 ([2]; RP8, plant height 28 days after treatment, foramsulfuron 29, sulfometuron 105 g ha^-1, non-treated 132 mm): 94 mm
Annual bluegrass control S ([2]; susceptible (S), 28 days after treatment, minimum of two tillers, foramsulfuron 29, sulfometuron 105 g ha^−1): 93%
Annual bluegrass height S ([2]; susceptible (S), plant height 28 days after treatment, foramsulfuron 29, sulfometuron 105 g ha^-1, non-treated 111 mm): 18 mm
Resistance factor W574L [3]: 2013
Resistance factor A205V [4]: 12
Resistance factor A205F [5]: 5160
IC50 [6]: 7.5 nM

Reference: PMC4698308, “A new amino acid substitution (Ala-205-Phe) in acetolactate synthase (ALS) confers broad spectrum resistance to ALS-inhibiting herbicides” (Planta, 2015)
